Test results published in patent US12172959B2, “Mono- or di-substituted indole derivatives as dengue viral replication inhibitors” (priority 2015, dated 2024).
Where two headings read alike, the source gives them in different places.

Experiments:
[1] = in vitro; conditions: African green monkey
[2] = test system: DENV-2 16681 strain; assay: DENV-2 antiviral assay (eGFP fluorescence, Vero cells); format: cell-based, Dengue virus; conditions: DENV-2 16681 eGFP, MOI 0.5, 3 days
Experimental: The antiviral activity of all the compounds of the invention was tested against the DENV-2 16681 strain which was labeled with enhanced green fluorescent protein (eGPF; Table 1). The culture medium consists of minimal essential medium supplemented with 2% of heat-inactivated fetal calf serum, 0.04% gentamycin (50 mg/mL) and 2 mM of L-glutamine. Vero cells, obtained from ECACC, were suspended in culture medium and 25 μL was added to 384-well plates (2500 cells/well), which already contain the antiviral compounds. Typically, these plates contain a 5-fold serial dilution of 9 dilution steps of the test compound at 200 times the final concentration in 100% DMSO (200 nL). […] Finally, each plate contains wells which are assigned as virus controls (containing cells and virus in the absence of compound), cell controls (containing cells in the absence of virus and compound) and medium controls (containing medium in the absence of cells, virus and compounds). To the wells assigned as medium control, 25 μL of culture medium was added instead of Vero cells. Once the cells were added to the plates, the plates were incubated for 30 minutes at room temperature to allow the cells to distribute evenly within the wells. Next, the plates were incubated in a fully humidified incubator (37° C., 5% CO2) until the next day. Then, DENV-2 strain 16681, labeled with eGFP, was added at a multiplicity of infection (MOI) of 0.5. Therefore, 15 μL of virus suspension was added to all the wells containing test compound and to the wells assigned as virus control. In parallel, 15 μL of culture medium was added to the medium and cell controls. Next, the plates were incubated for 3 days in a fully humidified incubator (37° C., 5% CO2). At the day of the read out, the eGFP fluorescence was measured using an automated fluorescence microscope at 488 nm (blue laser). Using an in-house LIMS system, inhibition dose response curves for each compound were calculated and the half maximal effective concentration (EC50) was determined. Therefore, the percent inhibition (I) for every test concentration is calculated using the following formula: I=100*(ST−SCC)/(SVC−SCC); ST, SCC and SVC are the amount of eGFP signal in the test compound, cell control and virus control wells, respectively. The EC50 represents the concentration of a compound at which the virus replication is inhibited with 50%, as measured by a 50% reduction of the eGFP fluorescent intensity compared to the virus control. The EC50 is calculated using linear interpolation.

[3] = test system: DENV-3 strain H87; assay: Tetravalent RT-qPCR assay Protocol A, serotype 3; format: cell-based; conditions: Dengue virus, DENV3, 72 h, RT-qPCR serotype 3 H87, Vero cells, day 3
Experimental: (§1) The antiviral activity of the compounds of the invention was tested against DENV-1 strain TC974#666 (NCPV; Table 6), DENV-2 strain 16681 (Table 7), DENV-3 strain H87 (NCPV; Table 8) and DENV-4 strains H241 (NCPV; Table 9A) and SG/06K2270DK1/2005 (Eden; Table 9B) in a RT-qPCR assay. Therefore, Vero cells were infected with either DENV-1, or -2, or -3, or -4 in the presence or absence of test compounds. At day 3 post-infection, the cells were lysed and cell lysates were used to prepare cDNA of both a viral target (the 3′UTR of DENV; Table 2) and a cellular reference gene (β-actin, Table 2). Subsequently, a duplex real time PCR was performed on a Lightcycler480 instrument. The generated Cp value is inversely proportional to the amount of RNA expression of these targets. Inhibition of DENV replication by test compound results in a shift of Cp's for the 3′UTR gene. On the other hand, if a test compound is toxic to the cells, a similar effect on β-actin expression will be observed. The comparative ΔΔCp method is used to calculate EC50, which is based on the relative gene expression of the target gene (3′UTR) normalized with the cellular housekeeping gene (β-actin).
(§2) The culture medium consisted of minimal essential medium supplemented with 2% of heat-inactivated fetal calf serum, 0.04% gentamycin (50 mg/mL) and 2 mM of L-glutamine. Vero cells, obtained from ECACC, were suspended in culture medium and 75 μL/well was added in 96-well plates (10000 cells/well), which already contain the antiviral compounds. […] In addition, each plate contains wells which are assigned as virus controls (containing cells and virus in the absence of compound) and cell controls (containing cells in the absence of virus and compound). Once the cells were added in the plates, the plates were incubated in a fully humidified incubator (37° C., 5% CO2) until the next day. Dengue viruses serotype-1, 2, 3 and 4 were diluted in order to obtain a Cp of ˜22-24 in the assay. Therefore, 25 μL of virus suspension was added to all the wells containing test compound and to the wells assigned as virus control. In parallel, 25 μL of culture medium was added to the cell controls. Next, the plates were incubated for 3 days in a fully humidified incubator (37° C., 5% CO2). After 3 days, the supernatant was removed from the wells and the cells were washed twice with ice-cold PBS (˜100 μL). The cell pellets within the 96-well plates were stored at −80° C. for at least 1 day. Next, RNA was extracted using the Cells-to-CT™ lysis kit, according to the manufacturer's guideline (Life Technologies). The cell lysates can be stored at −80° C. or immediately used in the reverse transcription step.
(§3) In preparation of the reverse transcription step, mix A (table 3A) was prepared and 7.57 μL/well was dispensed in a 96-well plate. After addition of 5 μL of the cell lysates, a five minute denaturation step at 75° C. was performed (table 3B). Afterwards, 7.43 μL of mix B was added (table 3C) and the reverse transcription step was initiated (table 3D) to generate cDNA.
(§4) Finally, a RT-qPCR mix was prepared, mix C (table 4A), and 22.02 μL/well was dispensed in 96-well LightCycler qPCR plates to which 3 μL of cDNA was added and the qPCR was performed according to the conditions in table 4B on a LightCycler 480.
(§5) Using the LightCycler software and an in-house LIMS system, dose response curves for each compound were calculated and the half maximal effective concentration (EC50) and the half maximal cytotoxic concentration (CC50) were determined.

[4] = test system: DENV-1 strain TC974#666; assay: Tetravalent RT-qPCR assay Protocol A, serotype 1; format: cell-based; conditions: Dengue virus, DENV1, 72 h, RT-qPCR serotype 1 TC974#666, Vero cells, day 3
Experimental: as §1, §2, §3, §4, §5

[5] = test system: DENV-4 strain SG/06K2270DK1/2005 (Eden); assay: Tetravalent RT-qPCR assay Protocol A, serotype 4 EDEN; format: cell-based; conditions: Dengue virus, DENV4, Vero, 72 h
Experimental: as §1, §2, §3, §4, §5

[6] = test system: DENV-4 strain H241; assay: Tetravalent RT-qPCR assay Protocol A, serotype 4 H241; format: cell-based; conditions: Dengue virus
Experimental: as §1, §2, §3, §4, §5

[7] = in vitro; format: cell-based; conditions: African green monkey, CC50
Experimental: as §1, §2, §5

[8] = test system: DENV-2 strain 16681; assay: Tetravalent RT-qPCR assay Protocol A, serotype 2; format: cell-based; conditions: Dengue virus
Experimental: as §1, §2, §3, §4, §5

[9] = test system: Vero cells; conditions: African green monkey
[10] = Dengue virus, DENV2, Vero, 72 h
[11] = DENV4, 72 h, Protocol A, RT-qPCR serotype 4 H241, Vero cells, day 3, read-out: EC50
[12] = DENV2, 72 h, Protocol A, RT-qPCR serotype 2 16681, Vero cells, day 3, read-out: EC50

Row | SMILES | CC50 [1] [nM] | EC50 [2, 10] [nM] | EC50 [3] [nM] | EC50 [4] [nM] | EC50 [6, 11] [nM] | CC50 at 3 days [7] [nM] | EC50 [8, 12] [nM] | EC50 [2] [nM] | CC50 [9] [nM] | further results
1 | COc1cc(NC(C(=O)c2c[nH]c3c(C)c(F)ccc23)c2ccc(Cl)cc2OC)cc(S(C)(=O)=O)c1 (racemic) [Compound 2, 2-(4-chloro-2-methoxyphenyl)-1-(6-fluoro-7-methyl-1H-indol-3-yl)-2-((3-methoxy-5-(methylsulfonyl)phenyl)amino)ethanone] | 5000 | 0.6 | – | – | – | – | – | – | – | –
2 | COc1cc(NC(C(=O)c2c[nH]c3cc(OC)ccc23)c2ccc(Cl)cc2OC)cc(S(C)(=O)=O)c1 (racemic) [Compound 3, 2-(4-chloro-2-methoxyphenyl)-1-(6-methoxy-1H-indol-3-yl)-2-((3-methoxy-5-(methylsulfonyl)phenyl)amino)ethanone] | > 11000 | 0.58 | – | – | – | – | – | – | – | –
3 | COc1cc(NC(C(=O)c2c[nH]c3cc(OC)c(C)cc23)c2ccc(Cl)cc2OC)cc(S(C)(=O)=O)c1 (racemic) [Compound 4, 2-(4-chloro-2-methoxyphenyl)-2-((3-methoxy-5-(methyl-sulfonyl)phenyl)amino)-1-(6-methoxy-5-methyl-1H-indol-3-yl)ethanone] | 5900 | 0.39 | – | – | – | – | – | – | – | –
4 | COc1cc(NC(C(=O)c2c[nH]c3cc(OC)c(F)cc23)c2ccc(Cl)cc2OC)cc(S(C)(=O)=O)c1 (racemic) [Compound 5, 2-(4-chloro-2-methoxyphenyl)-1-(5-fluoro-6-methoxy-1H-indol-3-yl)-2-((3-methoxy-5-(methylsulfonyl)phenyl)amino)ethanone] | 5500 | 0.62 | – | – | – | – | – | – | – | –
5 | COc1cc(NC(C(=O)c2c[nH]c3cc(F)c(C)cc23)c2ccc(Cl)cc2OC)cc(S(C)(=O)=O)c1 (racemic) [Compound 7, 2-(4-chloro-2-methoxyphenyl)-1-(6-fluoro-5-methyl-1H-indol-3-yl)-2-((3-methoxy-5-(methylsulfonyl)phenyl)amino)ethanone] | 3200 | 0.47 | – | – | – | – | – | – | – | –
6 | COc1cc(NC(C(=O)c2c[nH]c3ccc(C(F)(F)F)cc23)c2ccc(Cl)cc2OC)cc(S(C)(=O)=O)c1 (racemic) [Compound 8, 2-(4-chloro-2-methoxyphenyl)-2-((3-methoxy-5-(methyl-sulfonyl)phenyl)amino)-1-(5-(trifluoromethyl)-1H-indol-3-yl)ethanone] | 2900 | 0.13 | – | – | – | – | – | – | – | –
7 | COc1cc(NC(C(=O)c2c[nH]c3ccc(OC(F)(F)F)cc23)c2ccc(Cl)cc2OC)cc(S(C)(=O)=O)c1 (racemic) [Compound 9, 2-(4-chloro-2-methoxyphenyl)-2-((3-methoxy-5-(methyl-sulfonyl)phenyl)amino)-1-(5-(trifluoromethoxy)-1H-indol-3-yl)ethanone] | 3100 | 0.074 | – | – | – | – | – | – | – | –
8 | COc1cc(NC(C(=O)c2c[nH]c3cc(OC)ccc23)c2ccc(Cl)cc2OC)cc(S(C)(=O)=O)c1 (single isomer, unassigned) [Compound 3A, 2-(4-chloro-2-methoxyphenyl)-1-(6-methoxy-1H-indol-3-yl)-2-((3-methoxy-5-(methylsulfonyl)phenyl)amino)ethanone] | 7200 | – | 48 | 4.2 | 110 | 5500 | 0.3 | 0.25 | – | EC50 [5]: 3 nM
9 | COc1cc(NC(C(=O)c2c[nH]c3cc(F)c(C)cc23)c2ccc(Cl)cc2OC)cc(S(C)(=O)=O)c1 (single isomer, unassigned) [Compound 7B, 2-(4-chloro-2-methoxyphenyl)-1-(6-fluoro-5-methyl-1H-indol-3-yl)-2-((3-methoxy-5-(methylsulfonyl)phenyl)amino)ethanone] | – | – | 7.8 | 0.4 | 44 | 2200 | 0.17 | 0.2 | 3200 | –
10 | COc1cc(NC(C(=O)c2c[nH]c3ccc(C(F)(F)F)cc23)c2ccc(Cl)cc2OC)cc(S(C)(=O)=O)c1 (single isomer, unassigned) [Compound 8B, 2-(4-chloro-2-methoxyphenyl)-2-((3-methoxy-5-(methyl-sulfonyl)phenyl)amino)-1-(5-(trifluoromethyl)-1H-indol-3-yl)ethanone] | – | – | 5.8 | 0.45 | 15 | 1900 | – | 0.069 | 3400 | EC50 ([8]; DENV2, Vero, 72 h): 0.31 nM
11 | COc1cc(NC(C(=O)c2c[nH]c3ccc(OC(F)(F)F)cc23)c2ccc(Cl)cc2OC)cc(S(C)(=O)=O)c1 (single isomer, unassigned) [Compound 9A, 2-(4-chloro-2-methoxyphenyl)-2-((3-methoxy-5-(methyl-sulfonyl)phenyl)amino)-1-(5-(trifluoromethoxy)-1H-indol-3-yl)ethanone] | – | – | 2.1 | 0.11 | 12 | 1700 | 0.057 | 0.067 | 2900 | –
12 | COc1cc(NC(C(=O)c2c[nH]c3c(C)cc(OC(F)(F)F)cc23)c2ccc(Cl)cc2OC)cc(S(C)(=O)=O)c1 (single isomer, unassigned) [Compound 11A, 2-(4-chloro-2-methoxyphenyl)-2-((3-methoxy-5-(methylsulfonyl)phenyl)amino)-1-(7-methyl-5-(trifluoromethoxy)-1H-indol-3-yl)ethanone] | – | – | 1.2 | 0.13 | – | > 2500 | 0.051 | 0.085 | 2600 | EC50 ([6]; DENV4, Vero, 72 h): 11 nM
